Measured values published in US10034477B2, “Pyrido-1,3-oxazine-2,4-dione compounds with fungicidal activity” (Dow AgroSciences LLC, priority 2016, dated 2018).
Where two headings read alike, the source gives them in different places.

Legend:
[1] = test system: Phakopsora pachyrhizi; experiment: Fungicidal activity: Asian soybean rust (PHAKPA), disease control on soybean seedlings; format: in vivo; conditions: soybean (variety Williams 82)
Description: Technical grades of materials were dissolved in acetone, which were then mixed with nine volumes of H2O containing 0.011% Tween 20. The fungicide solutions were applied onto soybean seedlings using an automated booth sprayer to run-off. All sprayed plants were allowed to air dry prior to further handling. Soybean plants (variety Williams 82) were grown in soil-less Metro mix, with one plant per pot. Two week old seedlings were used for testing. Plants were inoculated either 3 days prior to or 1 day after fungicide treatments. Plants were incubated for 24 h in a dark dew room at 22° C. and 100% relative humidity then transferred to a growth room at 23° C. for disease to develop. Disease severity was assessed on the sprayed leaves.

[2] = test system: Zymoseptoria tritici; experiment: Fungicidal activity: leaf blotch of wheat (SEPTTR), disease control on wheat seedlings; format: in vivo; conditions: LV activity at 121.5 g/H, wheat (variety Yuma)
Description: (§1) Technical grades of materials were dissolved in acetone, which were then mixed with nine volumes of water (H2O) containing 110 ppm Triton X-100. The fungicide solutions were applied onto wheat seedlings using an automated booth sprayer to run-off. All sprayed plants were allowed to air dry prior to further handling. All fungicides were evaluated using the aforementioned method for their activity vs. all target diseases, unless stated otherwise. Wheat leaf blotch and brown rust activity were also evaluated using track spray applications, in which case the fungicides were formulated as EC formulations, containing 0.1% Trycol 5941 in the spray solutions. Wheat plants (variety Yuma) were grown from seed in a greenhouse in 50% mineral soil/50% soil-less Metro mix until the first leaf was fully emerged, with 7-10 seedlings per pot. These plants were inoculated with an aqueous spore suspension of Zymoseptoria tritici either prior to or after fungicide treatments. After inoculation the plants were kept in 100% relative humidity (one day in a dark dew chamber followed by two to three days in a lighted dew chamber at 20° C.) to permit spores to germinate and infect the leaf. The plants were then transferred to a greenhouse set at 20° C. for disease to develop. When disease symptoms were fully expressed on the 1st leaves of untreated plants, infection levels were assessed on a scale of 0 to 100 percent disease severity. Percent disease control was calculated using the ratio of disease severity on treated plants relative to untreated plants.

[3] = test system: Puccinia triticina; experiment: Fungicidal activity: wheat brown rust (PUCCRT), disease control on wheat seedlings; format: in vivo; conditions: LV activity at 121.5 g/H, wheat (variety Yuma)
Description: as §1, with “plants. Wheat plants (variety Yuma) were grown from seed in a greenhouse in 50% mineral soil/50% soil-less Metro mix until the first leaf was fully emerged, with 7-10 seedlings per pot. These plants were inoculated with an aqueous spore suspension of Puccinia triticina either prior to or after fungicide treatments. After inoculation the plants were kept in a dark dew room at 22° C. with 100% relative humidity overnight to permit spores to germinate and infect the leaf. The plants were then transferred to a greenhouse set at 24° C. for disease to develop. Fungicide formulation, application and disease assessment followed the procedures as described in the Example A. Results of the evaluations are shown below in Table 4.” for “plants.”

[4] = 24 h, 1 Day Protectant, read-out: PHAKPA 1DP disease control rating
[5] = 24 h, 1 Day Protectant, read-out: SEPTTR 1DP disease control rating
[6] = 72 h, 3 Day Curative, read-out: SEPTTR 3DC disease control rating
[7] = 24 h, 1 Day Protectant, read-out: PUCCRT 1DP disease control rating
[8] = 72 h, 3 Day Curative, read-out: PUCCRT 3DC disease control rating
[9] = 72 h, 3 Day Curative, read-out: PHAKPA 3DC disease control rating

**Q.** For `COc1ccnc2c(=O)n([C@@H](C)C(=O)O[C@@H](C)C(c3ccc(F)cc3)c3ccc(F)cc3)c(=O)oc12` [Compound 1], which pest or weed control at 25 ppm [1, 4] is on record?
**A.** ≤ 80%

**Q.** And the pest or weed control at 121.5 g/ha [2, 5]?
**A.** > 80%

**Q.** And the pest or weed control at 121.5 g/ha [2, 6]?
**A.** > 80%

**Q.** What about the pest or weed control at 121.5 g/ha [3, 7] of the same molecule?
**A.** > 80%

**Q.** And the pest or weed control at 121.5 g/ha [3, 8]?
**A.** ≤ 80%

**Q.** And the melting point?
**A.** 68 to 84 °C

**Q.** Which results are given for `COc1cc(Cl)ccc1C(c1ccc(Cl)cc1OC)[C@H](C)OC(=O)[C@H](C)n1c(=O)oc2c(OC)ccnc2c1=O` [Compound 26]?
**A.** pest or weed control at 25 ppm [1, 4]: ≤ 80%; pest or weed control at 121.5 g/ha [2, 5]: > 80%; pest or weed control at 121.5 g/ha [2, 6]: > 80%; pest or weed control at 121.5 g/ha [3, 7]: > 80%

**Q.** Which pest or weed control at 25 ppm [1, 4] does the source give for `COc1ccnc2c(=O)n([C@@H](C)C(=O)O[C@@H](C)C(c3ccc(Cl)cc3)c3ccc(Cl)cc3)c(=O)oc12` [Compound 27] here?
**A.** ≤ 80%

**Q.** And the pest or weed control at 25 ppm [1, 9]?
**A.** ≤ 80%

**Q.** And the pest or weed control at 121.5 g/ha [2, 5]?
**A.** > 80%

**Q.** And the pest or weed control at 121.5 g/ha [2, 6]?
**A.** > 80%

**Q.** And the pest or weed control at 121.5 g/ha [3, 7]?
**A.** ≤ 80%

**Q.** With `COc1ccnc2c(=O)n([C@@H](C)C(=O)O[C@@H](C)[C@@H](c3ccccc3)c3ccc(C(F)(F)F)cc3)c(=O)oc12` [Compound 28] as the molecule, how does the pest or weed control at 25 ppm [1, 9] read?
**A.** ≤ 80%

**Q.** What about the pest or weed control at 121.5 g/ha [2, 5] of the same molecule?
**A.** > 80%

**Q.** What about the pest or weed control at 121.5 g/ha [2, 6] of the same molecule?
**A.** > 80%

**Q.** And the pest or weed control at 121.5 g/ha [3, 7]?
**A.** ≤ 80%

**Q.** And the pest or weed control at 121.5 g/ha [3, 8]?
**A.** ≤ 80%

**Q.** Which pest or weed control at 25 ppm [1, 4] does the source give for `COc1ccnc2c(=O)n([C@@H](C)C(=O)O[C@H](C(C)C)[C@H](C)Oc3ccc(C)cc3)c(=O)oc12` [Compound 30] here?
**A.** ≤ 80%

**Q.** And the pest or weed control at 121.5 g/ha [2, 5]?
**A.** ≤ 80%

**Q.** And the pest or weed control at 121.5 g/ha [2, 6]?
**A.** ≤ 80%

**Q.** What about the pest or weed control at 121.5 g/ha [3, 7] of the same molecule?
**A.** > 80%

**Q.** And the pest or weed control at 121.5 g/ha [3, 8]?
**A.** ≤ 80%

**Q.** Which pest or weed control at 25 ppm [1, 4] does the source give for `CCC[C@@H](Oc1ccc(C)cc1)[C@H](C)OC(=O)[C@H](C)n1c(=O)oc2c(OC)ccnc2c1=O` [Compound 31] here?
**A.** ≤ 80%

**Q.** What about the pest or weed control at 25 ppm [1, 9] of the same molecule?
**A.** ≤ 80%

**Q.** What about the pest or weed control at 121.5 g/ha [2, 6] of the same molecule?
**A.** ≤ 80%

**Q.** And the pest or weed control at 121.5 g/ha [3, 7]?
**A.** > 80%

**Q.** And the pest or weed control at 121.5 g/ha [3, 8]?
**A.** ≤ 80%

**Q.** For `COc1ccnc2c(=O)n([C@@H](C)C(=O)O[C@@H](C)C(c3ccc(C)cc3)c3ccc(C)cc3)c(=O)oc12` [Compound 32, (S)-1,1-di-p-tolylpropan-2-yl-(S)-2-(8-methoxy-2,4-dioxo-2H-pyrido[2,3-e][1,3]oxazin-3(4H)-yl)propanoate], which pest or weed control at 25 ppm [1, 4] is on record?
**A.** ≤ 80%

**Q.** What about the pest or weed control at 25 ppm [1, 9] of the same molecule?
**A.** ≤ 80%

**Q.** What about the pest or weed control at 121.5 g/ha [2, 5] of the same molecule?
**A.** > 80%

**Q.** What about the pest or weed control at 121.5 g/ha [2, 6] of the same molecule?
**A.** > 80%

**Q.** And the pest or weed control at 121.5 g/ha [3, 7]?
**A.** > 80%

**Q.** What about the pest or weed control at 121.5 g/ha [3, 8] of the same molecule?
**A.** ≤ 80%

**Q.** Which pest or weed control at 25 ppm [1, 4] does the source give for `COc1ccnc2c(=O)n([C@@H](C)C(=O)O[C@@H](C)[C@@H](c3ccc(C)cc3)c3ccc(F)cc3C)c(=O)oc12` [Compound 33] here?
**A.** > 80%

**Q.** What about the pest or weed control at 25 ppm [1, 9] of the same molecule?
**A.** ≤ 80%

**Q.** What about the pest or weed control at 121.5 g/ha [2, 5] of the same molecule?
**A.** > 80%

**Q.** And the pest or weed control at 121.5 g/ha [2, 6]?
**A.** > 80%

**Q.** And the pest or weed control at 121.5 g/ha [3, 7]?
**A.** > 80%

**Q.** And the pest or weed control at 121.5 g/ha [3, 8]?
**A.** ≤ 80%
